# Laboratory results taken from patent publication US9200008B2 (ASKA PHARMACEUTICAL CO., LTD., priority 2010, dated 2015).
# Tested on: Human prostate cancer cell lines (PC-3 cells)
# Experiment: Measurement of cell death-inducing activity (Test Example 1)
# Type: cell-based
# Conditions: PC-3, 48 h, 48 hours after addition, tested at 10, 1, 0.1, 0.025 and 0.00625 μmol/L, qualitative evaluation of 10 fields, read-out: Concentration showing the cell death-inducing activity (cell death-inducing rate not less than 40%)
# Method in brief: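 PC-3 cells seeded at 1×10^5 cells/well and grown 48 h at 37 °C, 5% CO2, then exposed to compound at 10, 1, 0.1, 0.025 and 0.00625 μmol/L (DMSO control) for a further 48 h. Activity was called where cell death-inducing rate was not less than 40%.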
smiles,measurement,value
"COc1ccc(/C=N/NC(=O)c2oc(-c3ccccc3OC)nc2C)cc1O [Example 26-2, 2-(2-Methoxyphenyl)-4-methyloxazole-5-carboxylic acid[N′-(3-hydroxy-4-methoxylphenyl)methylidene]hydrazide]",minimal effective concentration,10 µM
COc1ccc(/C=N/NC(=O)c2oc(-c3ccccc3OC)nc2C)cc1C [Example 26-3],minimal effective concentration,10 µM
O=C(N/N=C/c1ccc(OC(F)F)c(O)c1)c1cc(-c2ccc(Cl)cc2Cl)ns1 [Example 27-2],minimal effective concentration,10 µM
Cc1cc(/C=N/NC(=O)c2cc(-c3ccc(Cl)cc3Cl)ns2)cc(C)c1O [Example 27-4],minimal effective concentration,1 µM
COc1ccc(/C=N/NC(=O)c2cc(-c3ccccc3OC)ns2)cc1O [Example 27-7],minimal effective concentration,0.1 µM
COc1ccccc1-c1cc(C(=O)N/N=C/c2cc(C)c(O)c(C)c2)sn1 [Example 27-8],minimal effective concentration,0.1 µM
Cc1ccccc1-c1cc(C(=O)N/N=C/c2cc(C)c(O)c(C)c2)sn1 [Example 27-10],minimal effective concentration,0.1 µM
Cc1cc(/C=N/NC(=O)c2cc(-c3ccccn3)ns2)cc(C)c1O [Example 27-12],minimal effective concentration,1 µM
Cc1cccnc1-c1cc(C(=O)N/N=C/c2cc(C)c(O)c(C)c2)sn1 [Example 27-13],minimal effective concentration,0.1 µM
"Cc1cc(/C=N/NC(=O)c2snc(-c3ccc(Cl)cc3Cl)c2N)ccc1O [Example 27-14, 4-Amino-3-(2,4-dichlorophenyl)isothiazole-5-carboxylic acid[1-(4-hydroxy-3-methylphenyl)methylidene]hydrazide]",minimal effective concentration,10 µM
"Cc1cc(/C=N/NC(=O)c2snc(-c3ccc(Cl)cc3Cl)c2N)cc(C)c1O [Example 27-15, 4-Amino-3-(2,4-dichlorophenyl)isothiazole-5-carboxylic acid[1-(4-hydroxy-3,5-dimethylphenyl)methylidene]hydrazide]",minimal effective concentration,10 µM
"COc1ccc(COC(=S)Nc2sc(-c3ccc(Cl)cc3OC)nc2C)cc1 [Example 28-1, [2-(4-Chloro-2-methoxyphenyl)-4-methylthiazol-5-yl]thiocarbamic acid O-(4-methoxybenzyl)ester]",minimal effective concentration,10 µM
"COc1ccc(/C=N/NC(=O)Cc2sc(-c3ccc(Cl)cc3OC)nc2C)cc1 [Example 29-1, [2-(4-Chloro-2-methoxyphenyl)-4-methylthiazol-5-yl]acetic acid[1-(4-methoxyphenyl)methylidene]hydrazide]",minimal effective concentration,1 µM
"COc1cc(Cl)ccc1-c1nc(C)c(CC(=O)N/N=C/c2cc(C)c(O)c(C)c2)s1 [Example 29-2, [2-(4-Chloro-2-methoxyphenyl)-4-methylthiazol-5-yl]acetic acid[1-(4-hydroxy-3,5-dimethylphenyl)methylidene]hydrazide]",minimal effective concentration,1 µM
"C/C(=N\N=C\c1cc(C)c(O)c(C)c1)c1sc(-c2ccc(Cl)cc2)nc1C [Example 30-1, 4-{[1-[2-(4-Chlorophenyl)-4-methylthiazol-5-yl]ethylidene]hydrazonomethyl}-2,6-dimethyl-phenol]",minimal effective concentration,10 µM
COc1ccc(/C=N/N=C(\C)c2sc(-c3ccc(Cl)cc3)nc2C)cc1O [Example 30-2],minimal effective concentration,1 µM
"COc1ccc(COCC(=O)c2sc(-c3ccc(C)cc3C)nc2C)cc1 [Example 31-1, 1-[2-(2,4-Dimethylphenyl)-4-methylthiazol-5-yl]-2-(4-methoxybenzyloxy)ethanone]",minimal effective concentration,10 µM
"COc1ccc(/C=C/C(=O)Nc2sc(-c3ccc(Cl)cc3OC)nc2C)cc1 [Example 34-1, N-[2-(4-Chloro-2-methoxyphenyl)-4-methylthiazol-5-yl]-3-(4-methoxyphenyl)acrylamide]",minimal effective concentration,1 µM
COc1cc(C)ccc1-c1nc(C)c(NC(=O)OCc2ccc3ncsc3c2)s1 [Example 36-2],minimal effective concentration,1 µM
COc1ccc(-c2nc(C)c(NC(=O)OCc3ccc4ncsc4c3)s2)c(OC)c1 [Example 36-3],minimal effective concentration,10 µM
Cc1ccc(-c2nc(C)c(NC(=O)OCc3ccc4ncsc4c3)s2)c(C)c1 [Example 36-4],minimal effective concentration,10 µM
CCc1nc(-c2ccc(F)cc2C)sc1NC(=O)OCc1ccc2ncsc2c1 [Example 36-5],minimal effective concentration,10 µM
"COc1cc(Cl)ccc1-c1nc(C)c(NC(=O)OCc2ccc3sc(C)nc3c2)s1 [Example 37-1, [2-(4-Chloro-2-methoxyphenyl)-4-methylthiazol-5-yl]carbamic acid 2-methylbenzothiazol-5-ylmethyl ester]",minimal effective concentration,0.1 µM
COc1cc(C)ccc1-c1nc(C)c(NC(=O)OCc2ccc3sc(C)nc3c2)s1 [Example 37-2],minimal effective concentration,1 µM
Cc1ccc(-c2nc(C)c(NC(=O)OCc3ccc4sc(C)nc4c3)s2)c(C)c1 [Example 37-3],minimal effective concentration,1 µM
Cc1nc2cc(COC(=O)Nc3sc(-c4ccc(Cl)cc4C)nc3C)ccc2s1 [Example 37-4],minimal effective concentration,1 µM
"COc1cc(Cl)ccc1-c1nc(C)c(NC(=O)OCc2ccc3c(c2)nc2n3CCN(C)C2)s1 [Example 38-1, [2-(4-Chloro-2-methoxyphenyl)-4-methylthiazol-5-yl]carbamic acid 2-methyl-1,2,3,4-tetrahydrobenzo[4,5]imidazo[1,2-a]pyrazin-8-ylmethyl ester]",minimal effective concentration,1 µM
"COc1cc(C)ccc1-c1nc(C)c(NC(=O)OCc2ccc3c(c2)nc2n3CCN(C)C2)s1 [Example 38-2, [2-(2-Methoxy-4-methylphenyl)-4-methylthiazol-5-yl]carbamic acid 2-methyl-1,2,3,4-tetrahydrobenzo[4,5]imidazo[1,2-a]pyrazin-8-ylmethyl ester]",minimal effective concentration,10 µM
"Cc1ccc(-c2nc(C)c(NC(=O)OCc3ccc4c(c3)nc3n4CCN(C)C3)s2)c(C)c1 [Example 38-3, [2-(2,4-Dimethylphenyl)-4-methylthiazol-5-yl]carbamic acid 2-methyl-1,2,3,4-tetrahydrobenzo[4,5]imidazo[1,2-a]pyrazin-8-ylmethyl ester]",minimal effective concentration,10 µM
"COc1cc(C)ccc1-c1nc(C)c(NC(=O)OCc2ccc3c(c2)nc2n3CCNC2)s1 [Example 39-1, [2-(2-Methoxy-4-methylphenyl)-4-methylthiazol-5-yl]carbamic acid 1,2,3,4-tetrahydrobenzo[4,5]imidazo[1,2-a]pyrazin-8-ylmethyl ester]",minimal effective concentration,0.1 µM
"COc1cc(Cl)ccc1-c1nc(C)c(NC(=O)OCc2ccc3c(c2)nc2n3CCSC2)s1 [Example 40-1, [2-(4-Chloro-2-methoxyphenyl)-4-methylthiazol-5-yl]carbamic acid 3,4-dihydro-1H-2-thia-4a,9-diazafluoren-7-ylmethyl ester]",minimal effective concentration,0.025 µM
"COc1cc(C)ccc1-c1nc(C)c(NC(=O)OCc2ccc3c(c2)nc2n3CCSC2)s1 [Example 40-2, [2-(2-Methoxy-4-methylphenyl)-4-methylthiazol-5-yl]carbamic acid 3,4-dihydro-1H-2-thia-4a,9-diazafluoren-7-ylmethyl ester]",minimal effective concentration,0.025 µM
"Cc1cc(Cl)ccc1-c1nc(C)c(NC(=O)OCc2ccc3c(c2)nc2n3CCSC2)s1 [Example 40-3, [2-(4-Chloro-2-methylphenyl)-4-methylthiazol-5-yl]carbamic acid 3,4-dihydro-1H-2-thia-4a,9-diazafluoren-7-ylmethyl ester]",minimal effective concentration,0.1 µM
